The pEC50 is the EC50 on a negative log10 scale, so that one unit is a factor of ten. Read a low pEC50 as a large EC50.

Our source for the EC50 values is patent publication US10519211B2, “Compounds as peptidic GLP1/glucagon/GIP receptor agonists” (SANOFI, priority 2016, dated 2019).

The target in the experiment is T1, human GIP receptor (hGIP-R) (Homo sapiens, UniProt P48546).
T1 construct: expressed in transfected cells; host or cells: HEK-293
T1 sequence (P48546 22-466): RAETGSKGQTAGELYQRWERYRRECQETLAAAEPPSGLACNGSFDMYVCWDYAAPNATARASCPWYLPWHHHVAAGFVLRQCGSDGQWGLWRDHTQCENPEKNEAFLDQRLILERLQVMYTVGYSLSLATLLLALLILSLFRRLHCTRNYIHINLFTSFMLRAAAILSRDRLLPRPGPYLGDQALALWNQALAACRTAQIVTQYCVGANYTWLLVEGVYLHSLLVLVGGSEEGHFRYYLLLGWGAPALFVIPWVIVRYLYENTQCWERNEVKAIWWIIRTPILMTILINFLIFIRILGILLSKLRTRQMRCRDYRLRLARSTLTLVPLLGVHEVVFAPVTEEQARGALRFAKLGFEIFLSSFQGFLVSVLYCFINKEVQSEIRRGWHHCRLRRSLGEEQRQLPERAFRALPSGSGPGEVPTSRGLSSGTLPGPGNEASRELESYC
Briefly: cAMP response (HTRF) of HEK-293 cells stably expressing human GIP receptor. The experiment is classed as cell-based. The settings on record: Table 8; cAMP formation. The method in brief: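 HEK-293 cells stably expressing the receptor, resuspended in HBSS/20 mM HEPES/0.1% BSA/2 mM IBMX at 400000 cells/ml, were exposed to increasing concentrations of peptide for 30 minutes at room temperature. Formed cAMP was measured by HTRF to give potency.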

pEC50: −log10 of the molar value.

In the case of `CCCCCCCCCCCCCCCC(=O)N[C@@H](CCC(=O)N[C@@H](CCC(=O)NCCCC[C@H](NC(=O)[C@H](CC(C)C)NC(=O)[C@H](CCCCN)NC(=O)[C@H](CO)NC(=O)[C@H](CC(C)C)NC(=O)[C@H](CC(=O)O)NC(=O)[C@H](CO)NC(=O)[C@@H](NC(=O)[C@H](Cc1ccccc1)NC(=O)[C@@H](NC(=O)CNC(=O)[C@H](CCC(N)=O)NC(=O)C(C)(C)NC(=O)[C@@H](N)Cc1c[nH]cn1)[C@@H](C)O)[C@@H](C)O)C(=O)N[C@@H](CCC(=O)O)C(=O)N[C@@H](CCC(=O)O)C(=O)N[C@@H](CCC(N)=O)C(=O)N[C@@H](CCCNC(=N)N)C(=O)N[C@@H](CCC(N)=O)C(=O)NC(C)(C)C(=O)N[C@@H](CCC(=O)O)C(=O)N[C@@H](Cc1ccccc1)C(=O)N[C@H](C(=O)N[C@@H](CCC(=O)O)C(=O)N[C@@H](Cc1c[nH]c2ccccc12)C(=O)N[C@@H](CC(C)C)C(=O)N[C@@H](CCCCN)C(=O)N[C@@H](C)C(=O)NCC(=O)NCC(=O)N1CCC[C@H]1C(=O)N1CCC[C@H]1C(=O)N[C@@H](CO)C(=O)NC(C)(C)C(=O)N[C@@H](CCCCN)C(=O)N1CCC[C@H]1C(=O)N1CCC[C@H]1C(=O)N1CCC[C@H]1C(=O)N[C@@H](CCCCN)C(N)=O)[C@@H](C)CC)C(=O)O)C(=O)O` [SEQ ID NO: 9, H-Aib-Q-G-T-F-T-S-D-L-S-K-L-K[gGlu-gGlu-Palm]-E-E-Q-R-Q-Aib-E-F-I-E-W-L-K-A-G-G-P-P-S-Aib-K-P-P-P-K-NH2], the pEC50 is 11.25.
